Columns and labels:
Assay in all cases: Test E preemergence
soybean = format: in vivo, Glycine max; details: for Soybean plant response rating: scale 0 to 100 (0 no effect, 100 complete control); for Plant response rating, Soybean: scale 0 to 100, 0 no effect, 100 complete control
Procedure, shortened: (§1)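 Test chemicals formulated in a non-phytotoxic solvent mixture containing a surfactant were applied preemergence to seeds in silt loam soil or postemergence to plants at the 1- to 4-leaf stage in potting mix. After 14 to 21 days in a greenhouse, injury was visually rated against controls on a 0-100 scale (0 = no effect, 100 = complete control).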

surinam grass = format: in vivo, Brachiaria decumbens; details: for Surinam Grass plant response rating: scale 0 to 100 (0 no effect, 100 complete control); for Plant response rating, Surinam Grass: scale 0 to 100, 0 no effect, 100 complete control
Source text: (§2) Seeds of plant species selected from corn (Zea mays), soybean (Glycine max), velvetleaf (Abutilon theophrasti), lambsquarters (Chenopodium album), wild poinsettia (Euphorbia heterophylla), palmer pigweed (Amaranthus palmeri), waterhemp (common waterhemp, Amaranthus rudis), surinam grass (Brachiaria decumbens), large (Lg) crabgrass (Digitaria sanguinalis), Brazilian crabgrass (Digitaria horizontalis), fall panicum (Panicum dichotomiflorum), giant foxtail (Setaria faberii), green foxtail (Setaria viridis), goosegrass (Eleusine indica), johnsongrass (Sorghum halepense), ragweed (common ragweed, Ambrosia elatior), barnyardgrass (Echinochloa crus-galli), sandbur (southern sandbur, Cenchrus echinatus), arrowleaf sida (Sida rhombifolia), Italian ryegrass (Lolium multiflorum), dayflower (Virginia (VA) dayflower, Commelina virginica), field bindweed (Convolvulus arvensis), morningglory (Ipomoea coccinea), nightshade (eastern black nightshade, Solanum ptycanthum), kochia (Kochia scoparia), yellow nutsedge (Cyperus esculentus), cocklebur (common cocklebur, Xanthium strumarium), smartweed (ladysthumb smartweed, and hairy beggarticks (Bidens pilosa), were planted into a silt loam soil and treated preemergence with test chemicals formulated in a non-phytotoxic solvent mixture which included a surfactant.
(§3) At the same time, plants from these crop and weed species and also horseweed (Canada horseweed, Conyza canadensis), waterhemp_RES1, (ALS & Triazine resistant common waterhemp, Amaranthus rudis), and waterhemp_RES2, (ALS & HPPD resistant common waterhemp, Amaranthus rudis) were planted in pots containing Redi-Earth® planting medium (Scotts Company, 14111 Scottslawn Road, Marysville, Ohio 43041) comprising spaghnum peat moss, vermiculite, wetting agent and starter nutrients were treated with postemergence applications of test chemicals formulated in the same manner. Plants ranged in height from 2 to 18 cm for postemergence treatments (1- to 4-leaf stage). Treated plants and controls were maintained in a greenhouse for 14 to 21 days, after which time all species were compared to controls and visually evaluated. Plant response ratings, summarized in Table E, are based on a scale of 0 to 100 where 0 is no effect and 100 is complete control. A dash (-) response means no test result.

large (Lg) crabgrass = format: in vivo, Digitaria sanguinalis; details: for Crabgrass, Large plant response rating: scale 0 to 100 (0 no effect, 100 complete control); for Plant response rating, Crabgrass, Large: scale 0 to 100, 0 no effect, 100 complete control
Procedure, shortened: as §1

fall panicum = format: in vivo, Panicum dichotomiflorum; details: for Panicum, Fall plant response rating: scale 0 to 100 (0 no effect, 100 complete control); for Plant response rating, Panicum, Fall: scale 0 to 100, 0 no effect, 100 complete control
Source text: as §2, §3

giant foxtail = format: in vivo, Setaria faberii; details: for Foxtail, Giant plant response rating: scale 0 to 100 (0 no effect, 100 complete control); for Plant response rating, Foxtail, Giant: scale 0 to 100, 0 no effect, 100 complete control
Procedure, shortened: as §1

goosegrass = format: in vivo, Eleusine indica; details: for Goosegrass plant response rating: scale 0 to 100 (0 no effect, 100 complete control); for Plant response rating, Goosegrass: scale 0 to 100, 0 no effect, 100 complete control
Source text: as §2, §3

ragweed = format: in vivo, Ambrosia elatior; details: for Ragweed plant response rating: scale 0 to 100 (0 no effect, 100 complete control); for Plant response rating, Ragweed: scale 0 to 100, 0 no effect, 100 complete control
Procedure, shortened: as §1

barnyardgrass = format: in vivo, Echinochloa crus-galli; details: for Barnyardgrass plant response rating: scale 0 to 100 (0 no effect, 100 complete control); for Plant response rating, Barnyardgrass: scale 0 to 100, 0 no effect, 100 complete control
Source text: as §2, §3

sandbur = format: in vivo, Cenchrus echinatus; details: for Sandbur plant response rating: scale 0 to 100 (0 no effect, 100 complete control); for Plant response rating, Sandbur: scale 0 to 100, 0 no effect, 100 complete control
Procedure, shortened: as §1

Italian ryegrass = format: in vivo, Lolium multiflorum; details: for Ryegrass, Italian plant response rating: scale 0 to 100 (0 no effect, 100 complete control); for Plant response rating, Ryegrass, Italian: scale 0 to 100, 0 no effect, 100 complete control
Procedure, shortened: as §1

morningglory = format: in vivo, Ipomoea coccinea; details: for Morningglory plant response rating: scale 0 to 100 (0 no effect, 100 complete control); for Plant response rating, Morningglory: scale 0 to 100, 0 no effect, 100 complete control
Procedure, shortened: as §1

nightshade = format: in vivo, Solanum ptycanthum; details: for Nightshade plant response rating: scale 0 to 100 (0 no effect, 100 complete control); for Plant response rating, Nightshade: scale 0 to 100, 0 no effect, 100 complete control
Procedure, shortened: as §1

kochia = format: in vivo, Kochia scoparia; details: for Kochia plant response rating: scale 0 to 100 (0 no effect, 100 complete control); for Plant response rating, Kochia: scale 0 to 100, 0 no effect, 100 complete control
Source text: as §2, §3

hairy beggarticks = format: in vivo, Bidens pilosa; details: for Beggarticks plant response rating: scale 0 to 100 (0 no effect, 100 complete control); for Plant response rating, Beggarticks: scale 0 to 100, 0 no effect, 100 complete control
Procedure, shortened: as §1

FC(F)(F)c1cnn(-c2ccccc2Oc2ncc(Cl)cn2)c1 [Compound 16]
Soybean plant response rating (soybean; 16 g ai/ha): 0
Soybean plant response rating (soybean; 31 g ai/ha): 60
Soybean plant response rating (soybean; 62 g ai/ha): 60
Plant response rating, Soybean (soybean; 125 g ai/ha): 90
Plant response rating, Soybean (soybean; 250 g ai/ha): 95
Surinam Grass plant response rating (surinam grass; 16 g ai/ha): 0
Surinam Grass plant response rating (surinam grass; 31 g ai/ha): 0
Surinam Grass plant response rating (surinam grass; 62 g ai/ha): 0
Plant response rating, Surinam Grass (surinam grass; 125 g ai/ha): 30
Plant response rating, Surinam Grass (surinam grass; 250 g ai/ha): 50
Crabgrass, Large plant response rating (large (Lg) crabgrass; 16 g ai/ha): 0
Crabgrass, Large plant response rating (large (Lg) crabgrass; 31 g ai/ha): 0
Crabgrass, Large plant response rating (large (Lg) crabgrass; 62 g ai/ha): 65
Plant response rating, Crabgrass, Large (large (Lg) crabgrass; 125 g ai/ha): 80
Plant response rating, Crabgrass, Large (large (Lg) crabgrass; 250 g ai/ha): 100
Panicum, Fall plant response rating (fall panicum; 16 g ai/ha): 0
Panicum, Fall plant response rating (fall panicum; 31 g ai/ha): 80
Panicum, Fall plant response rating (fall panicum; 62 g ai/ha): 100
Plant response rating, Panicum, Fall (fall panicum; 125 g ai/ha): 100
Plant response rating, Panicum, Fall (fall panicum; 250 g ai/ha): 100
Foxtail, Giant plant response rating (giant foxtail; 16 g ai/ha): 15
Foxtail, Giant plant response rating (giant foxtail; 31 g ai/ha): 20
Foxtail, Giant plant response rating (giant foxtail; 62 g ai/ha): 100
Plant response rating, Foxtail, Giant (giant foxtail; 125 g ai/ha): 100
Plant response rating, Foxtail, Giant (giant foxtail; 250 g ai/ha): 100
Goosegrass plant response rating (goosegrass; 16 g ai/ha): 0
Goosegrass plant response rating (goosegrass; 31 g ai/ha): 35
Goosegrass plant response rating (goosegrass; 62 g ai/ha): 50
Plant response rating, Goosegrass (goosegrass; 125 g ai/ha): 75
Plant response rating, Goosegrass (goosegrass; 250 g ai/ha): 95
Ragweed plant response rating (ragweed; 16 g ai/ha): 0
Ragweed plant response rating (ragweed; 31 g ai/ha): 0
Ragweed plant response rating (ragweed; 62 g ai/ha): 0
Plant response rating, Ragweed (ragweed; 125 g ai/ha): 30
Plant response rating, Ragweed (ragweed; 250 g ai/ha): 65
Barnyardgrass plant response rating (barnyardgrass; 16 g ai/ha, preemergence): 0
Barnyardgrass plant response rating (barnyardgrass; 31 g ai/ha, preemergence): 0
Plant response rating, Barnyardgrass (barnyardgrass; Preemergence, 62 g ai/ha): 0
Plant response rating, Barnyardgrass (barnyardgrass; preemergence, 125 g ai/ha): 10
Plant response rating, Barnyardgrass (barnyardgrass; preemergence, 250 g ai/ha): 40
Sandbur plant response rating (sandbur; 16 g ai/ha): 0
Sandbur plant response rating (sandbur; 31 g ai/ha): 20
Sandbur plant response rating (sandbur; 62 g ai/ha): 20
Plant response rating, Sandbur (sandbur; 125 g ai/ha): 70
Plant response rating, Sandbur (sandbur; 250 g ai/ha): 95
Ryegrass, Italian plant response rating (Italian ryegrass; 16 g ai/ha): 0
Ryegrass, Italian plant response rating (Italian ryegrass; 31 g ai/ha): 0
Ryegrass, Italian plant response rating (Italian ryegrass; 62 g ai/ha): 15
Plant response rating, Ryegrass, Italian (Italian ryegrass; 125 g ai/ha): 40
Plant response rating, Ryegrass, Italian (Italian ryegrass; 250 g ai/ha): 75
Morningglory plant response rating (morningglory; 16 g ai/ha): 0
Morningglory plant response rating (morningglory; 31 g ai/ha): 0
Morningglory plant response rating (morningglory; 62 g ai/ha): 0
Plant response rating, Morningglory (morningglory; 125 g ai/ha): 25
Plant response rating, Morningglory (morningglory; 250 g ai/ha): 95
Nightshade plant response rating (nightshade; 16 g ai/ha): 0
Nightshade plant response rating (nightshade; 31 g ai/ha): 98
Nightshade plant response rating (nightshade; 62 g ai/ha): 100
Plant response rating, Nightshade (nightshade; 125 g ai/ha): 100
Plant response rating, Nightshade (nightshade; 250 g ai/ha): 100
Kochia plant response rating (kochia; 16 g ai/ha): 0
Kochia plant response rating (kochia; 31 g ai/ha): 0
Kochia plant response rating (kochia; 62 g ai/ha): 65
Plant response rating, Kochia (kochia; 125 g ai/ha): 100
Plant response rating, Kochia (kochia; 250 g ai/ha): 100
Beggarticks plant response rating (hairy beggarticks; 16 g ai/ha, preemergence): 0
Beggarticks plant response rating (hairy beggarticks; 31 g ai/ha, preemergence): 0
Plant response rating, Beggarticks (hairy beggarticks; Preemergence, 62 g ai/ha): 0
Plant response rating, Beggarticks (hairy beggarticks; preemergence, 125 g ai/ha): 0
Plant response rating, Beggarticks (hairy beggarticks; preemergence, 250 g ai/ha): 0

— patent US9695155B2, “Herbicidal substituted pyrimidinyloxy benzene compounds” (E. I. DU PONT DE NEMOURS AND COMPANY, priority 2013, dated 2017)
